Legend:
Format in all cases: cell-based, Pseudomonas aeruginosa
MPAO1 [1] = test: In vitro adaptive evolution (serial passaging) with MIC determination
Experimental: (§1) MICs were determined via microbroth dilution assay in 96-well culture plates with 2-fold serial dilutions of tested antibiotic in Mueller-Hinton (cation-adjusted) broth, inoculated with 50 μL of 2.75×10^5 CFU/mL of each bacterial strain and incubated at 37° C., 200 rpm for 24 hours. MIC experiments were performed using biological triplicates.
(§2) Serial passaging of bacterial strains was performed in 96-well culture plates with 2-fold serial dilutions of antibiotic in MH broth, inoculated with 50 μL 2.75×10^5 CFU/mL of each strain and incubated at 37° C., 200 rpm for 24 hours. […] The bacteria were then serially passaged in the same antibiotic and MIC determined for all antibiotics (aztreonam, ciprofloxacin, D-CONGA, D-CONGA-Q7, polymyxin B). See Antimicrobial susceptibility testing section. The bacteria were serially passaged a total of 10 times.
(§3) All resistance acquisition data was analyzed in units of fold-change to normalize for differences in starting MIC across strains. Fold-change in MIC data for all strains and treatment groups was natural log-transformed and simple linear regression was performed considering each replicate fold-change value as an individual point. Slope, standard error of slope, and total number of values of each treatment group of interest were analyzed via unpaired t-test (ΔmutS vs WT) or ordinary one-way ANOVA (cross-resistance acquisition of ΔmutS+AB vs −AB vs WT), and α-values were corrected for multiple comparisons using the Bonferroni method. Differences in estimated mutation rate across treatment groups were determined via ordinary one-way ANOVA (Brown-Forsythe test). For all statistical tests, p<0.05 was considered significant. All figures were created and statistical tests were done using GraphPad Prism 9.3.1.

MPAO1-ΔmutL [2] = test: as above; conditions: MPAO1-ΔmutL, monotherapy
Experimental: as §1, §2, §3

MPAO1-ΔmutS [3] = test: as above
Experimental: as §1, §2, §3

MPAO1 [4] = test: microbe, parasite or virus in culture; conditions: strain MPAO1
Experimental: (§4) MIC experiments were performed using biological triplicates.

PAO1 = test: microbe, parasite or virus in culture; conditions: strain PAO1
Experimental: as §4

[5] = test system: predicted MMR-deficient clinical isolates; test: In vitro adaptive evolution of clinical isolates from pwCF; conditions: isolates CFP6_Pa2, CFP8_Pa1 and CFP9_Pa1
Experimental: as §4

MPAO1-ΔmutL [6] = test: MIC, microbroth dilution assay; conditions: strain ΔmutL
Experimental: as §4

MPAO1-ΔmutS [7] = test: MIC, microbroth dilution assay; conditions: strain ΔmutS
Experimental: as §4

[8] = MPAO1 passaged with No Antibiotic (Table 4)
[9] = MPAO1 passaged with No Antibiotic (Table 8)
[10] = MPAO1-ΔmutS evolved in AZ + COL
[11] = MPAO1-ΔmutS evolved in the named drug
[12] = MPAO1-ΔmutS passaged with No Antibiotic (Table 4)
[13] = MPAO1-ΔmutS passaged with No Antibiotic (Table 8)

Colistin was tested, and the “resistance acquisition on repeated exposure to the drug” value (“resistance acquisition … to the drug” below) (MPAO1 [1]; MPAO1, monotherapy, more slowly than MPAO1-ΔmutS) was “eventually displayed an elevated minimum inhibitory concentration (MIC)”, the “Average MIC at end point” value (MPAO1 [1]; MPAO1 evolved in AZ + COL) was 5 µg/mL and the “fold-change relative to starting MIC before treatment” value (MPAO1 [1]; MPAO1 evolved in AZ + COL) was 2.67. For the same substance, the “Average MIC at end point” value (MPAO1 [1]; MPAO1 evolved in COL) was 4 µg/mL, the “fold-change relative to starting MIC before treatment” value (MPAO1 [1]; MPAO1 evolved in COL) was 2 and the “Average MIC at end point” value (MPAO1 [1]; [8]) was 2 µg/mL. For the same substance, the “fold-change relative to starting MIC before treatment” value (MPAO1 [1]; [8]) was 1, the “Average MIC at end point” value (MPAO1 [1]; [9]) was 2 µg/mL and the “fold-change relative to starting MIC before treatment” value (MPAO1 [1]; [9]) was 1. The “resistance acquisition … to the drug” value (MPAO1-ΔmutL [2]) was “rapid resistance acquisition”, the “Average MIC at end point” value (MPAO1-ΔmutS [3]; [10]) was 3 µg/mL and the “fold-change relative to starting MIC before treatment” value (MPAO1-ΔmutS [3]; [10]) was 1.67. The “Average MIC at end point” value (MPAO1-ΔmutS [3]; MPAO1-ΔmutS evolved in COL) was 53 µg/mL, the “fold-change relative to starting MIC before treatment” value (MPAO1-ΔmutS [3]; MPAO1-ΔmutS evolved in COL) was 20 and the “cross-resistance to antibiotics induced by treatment” value (MPAO1-ΔmutS [3]; [11]) was “failed to induce marked cross-resistance to antibiotics”. For the same substance, the “cross-resistance to peptides induced by treatment” value (MPAO1-ΔmutS [3]; [11]) was “induced cross-resistance to other peptides”, the “Average MIC at end point” value (MPAO1-ΔmutS [3]; [12]) was 2 µg/mL and the “fold-change relative to starting MIC before treatment” value (MPAO1-ΔmutS [3]; [12]) was 1. For the same substance, the “Average MIC at end point” value (MPAO1-ΔmutS [3]; [13]) was 2 µg/mL, the “fold-change relative to starting MIC before treatment” value (MPAO1-ΔmutS [3]; [13]) was 1 and the “resistance acquisition … to the drug” value (MPAO1-ΔmutS [3]; MPAO1-ΔmutS, monotherapy) was “Rapid acquisition of resistance”. The “MIC, average of triplicates” value (MPAO1 [4]) was 2 µg/mL, the “MIC, average of triplicates” value (PAO1) was 2 µg/mL and the “resistance acquisition under monotherapy” value [5] was “rapidly acquired resistance”. For the same substance, the “MIC, average of triplicates” value (MPAO1-ΔmutL [6]) was 2 µg/mL and the “MIC, average of triplicates” value (MPAO1-ΔmutS [7]) was 2 µg/mL.

From US20260224658A1, “PRODUCTS AND METHODS FOR THE DIAGNOSIS AND TREATMENT OF P[…]” (priority 2023, published 2026)
